Results from US7725174B2 (priority 2006, dated 2010).

What was measured:
human volunteer subjects [1] = details: in vivo
human volunteer subjects [2] = details: one subject
Description: As with ApEn, these entropy measures compare changes in the time series of raw EEG data as it is generated. However, they are designed to determine qualities about the system which is generating the data. As such, they have potential to impart information about changes in CNS rather than just changes in the EEG. Information can be related about the CNS from a mesoscopic scale to a microscopic scale. […] Correlation dimension has not been used for real time analyses in the past because the computation usually requires large data sets for precise determination of the actual dimension of the data space. (See, Preissl, H., W. Lutzenberger, F. Pulvermuller, and N. Birbaumer, Fractal dimensions of short EEG time series in humans. Neurosci Lett, 1997. 225: p. 77-80.) To address this problem, we used short segments (e.g., 10 seconds) of data to calculate the correlation dimension and averaged the critical distance parameter ε, with each new estimate. Though this limits the accuracy with which signal dimension can be determined, it provides a reasonable estimate that changes as signal complexity changes.
Using the same raw EEG data, Lyapunov exponents of the EEG were also determined. Lyapunov exponents provide a qualitative indicator of signal stability. Unstable signals are sensitive to initial conditions and thus the predictability of their future trajectory is difficult. […]

SMILES: CC(C)c1cccc(C(C)C)c1O [propofol]
- change in ApEn with drug concentration (human volunteer subjects [1]): decreased
- Lyapunov exponent with increasing sedation (human volunteer subjects [2]; FIG. 9): tends towards a positive value
- changes in correlation dimension by clinical frequency band (human volunteer subjects [2]; awake to deeper levels of sedation, FIG. 8): appear in the higher frequency ranges first
